These results are taken from patent US8022217B2, “Compounds suitable as modulators of HDL” (Cadila Healthcare Limited, priority 2006, dated 2011).

Where a name gives a salt, the structure may show the parent alone.

In the first assay the target is T1, recombinant CETP (Homo sapiens, UniProt P11597).
T1 sequence (P11597 18-493): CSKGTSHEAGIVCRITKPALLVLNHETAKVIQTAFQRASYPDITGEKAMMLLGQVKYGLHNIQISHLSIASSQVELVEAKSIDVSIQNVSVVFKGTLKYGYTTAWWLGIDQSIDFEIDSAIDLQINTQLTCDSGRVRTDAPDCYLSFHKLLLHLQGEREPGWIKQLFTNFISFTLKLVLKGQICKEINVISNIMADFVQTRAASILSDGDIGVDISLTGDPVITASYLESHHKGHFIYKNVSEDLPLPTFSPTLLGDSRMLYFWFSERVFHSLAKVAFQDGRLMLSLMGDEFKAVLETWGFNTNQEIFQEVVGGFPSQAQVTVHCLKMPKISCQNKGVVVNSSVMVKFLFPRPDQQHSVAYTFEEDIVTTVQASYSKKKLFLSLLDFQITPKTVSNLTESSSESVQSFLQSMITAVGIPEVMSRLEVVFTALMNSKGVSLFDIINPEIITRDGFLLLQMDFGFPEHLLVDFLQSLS
As to the kind of experiment: CETP in-vitro assay (Scintillation Proximity Assay, transfer of [3H] cholesteryl ester from HDL to biotinylated LDL). It is filed as biochemical.
Conditions: not given
Here is the method:
This assay used a commercially available Scintillation Proximity Assay kit (Amersham TRKQ7015) with modifications for measuring CETP activity. [^3H] Cholesteryl ester HDL was mixed with non radioactive HDL prepared from human plasma at an appropriate ratio in order to ensure a proper transfer of cholesteryl esters. Transfer of [^3H] Cholesteryl esters from high density lipoprotein (HDL) to biotinylated low density lipoprotein (LDL) was measured following incubation of donor and acceptor particles in the presence of recombinant CETP. Following overnight incubation, the reaction was terminated and transfer was measured in a single step addition of streptavidin coated beads formulated in an assay terminal buffer. The rate of increase in signal was proportional to the transfer of [^3H] Cholesteryl ester by CETP.
Turning to `CC(C)(C)c1ccc(CN(CCc2ccc(Cl)c(Cl)c2)C(=O)c2cc(F)cc3c2NCCC3)cc1.Cl` [Compound 50, 6-Fluoro-1,2,3,4-tetrahydro-quinoline-8-carboxylic acid (4-tert-butyl-benzyl)-[2-(3,4-dichloro-phenyl)-ethyl]-amide; hydrochloride salt], the “% of CETP inhibition at 10 μmole concentration” value came to 90%.

Staying with this assay, now noted: 10 μmole concentration.
On to `CC(C)(C)c1ccc(CN(CCc2ccc(Cl)c(Cl)c2)C(=O)c2cccc3c2NCCC3)cc1` [Compound 48, 1,2,3,4-Tetrahydro-quinoline-8-carboxylic acid (4-tert-butyl-benzyl)-[2-(3,4-dichloro-phenyl)-ethyl]-amide; hydrochloride salt], for which the inhibition at 10 µM worked out at 79%.
Same read-out and setting: as for `COc1ccc(CCN(Cc2ccc(C(C)(C)C)cc2)C(=O)c2cccc3c2NCCC3)cc1OC` [Compound 43, 1,2,3,4-Tetrahydro-quinoline-8-carboxylic acid (4-tert-butyl-benzyl)-[2-(3,4-dimethoxy-phenyl)-ethyl]-amide], the figure is 80%; as for `CC(C)(C)c1ccc(CN(CCc2ccccc2F)C(=O)c2cccc3c2NCCC3)cc1` [Compound 22, 1,2,3,4-Tetrahydro-quinoline-8-carboxylic acid (4-tert-butyl-benzyl)-[2-(2-fluoro-phenyl)-ethyl]-amide], 94%; as for `Cc1ccc(CN(CCc2ccc(Cl)c(Cl)c2)C(=O)c2cccc3c2NCCC3)cc1` [Compound 29, 1,2,3,4-Tetrahydro-quinoline-8-carboxylic acid [2-(3,4-dichloro-phenyl)-ethyl]-(4-methyl-benzyl)-amide], 83%.
In the case of `CC(C)(C)c1ccc(CN(CCc2ccc(Cl)c(Cl)c2)C(=O)c2cc(Cl)cc3c2NCCC3)cc1` [Compound 35, 6-Chloro-1,2,3,4-tetrahydro-quinoline-8-carboxylic acid (4-tert-butyl-benzyl)-[2-(3,4-dichloro-phenyl)-ethyl]-amide], the inhibition at 10 µM came out at 85%.
With `CC(C)(C)c1ccc(CN(CCc2ccc3c(c2)OCO3)C(=O)c2cccc3c2NCCC3)cc1` [Compound 38, 1,2,3,4-Tetrahydro-quinoline-8-carboxylic acid (2-benzo[1,3]dioxol-5-yl-ethyl)-(4-tert-butyl-benzyl)-amide], the inhibition at 10 µM was determined as 78%.
For the compound `CC(C)(C)c1ccc(CN(CCc2ccc(O)cc2)C(=O)c2cccc3c2NCCC3)cc1` [Compound 42, 1,2,3,4-Tetrahydro-quinoline-8-carboxylic acid (4-tert-butyl-benzyl)-[2-(4-hydroxy-phenyl)-ethyl]-amide], the inhibition at 10 µM came out at 99%.
Same read-out and setting: in the case of `Cc1cc2c(c(C(=O)N(CCc3ccc(Cl)c(Cl)c3)Cc3ccc(C(C)(C)C)cc3)c1)NCCC2` [Compound 31, 6-Methyl-1,2,3,4-tetrahydro-quinoline-8-carboxylic acid (4-tert-butyl-benzyl)-[2-(3,4-dichloro-phenyl)-ethyl]-amide] it was 82%; in that of `CC(C)(C)c1ccc(CN(CCc2ccc(F)c(F)c2)C(=O)c2cc(Cl)cc3c2NCCC3)cc1` [Compound 40, 6-Chloro-1,2,3,4-tetrahydro-quinoline-8-carboxylic acid (4-tert-butyl-benzyl)-[2-(3,4-difluoro-phenyl)-ethyl]-amide], 89%.
On the same count and under the same terms, as for `O=C(c1cccc2c1NCCC2)N(CCc1ccc(F)cc1)Cc1ccc(C(F)(F)F)cc1` [Compound 14, 1,2,3,4-Tetrahydro-quinoline-8-carboxylic acid [2-(4-fluoro-phenyl)-ethyl]-(4-trifluoromethyl-benzyl)-amide], the figure is 74%.
Take `COc1ccc(CCN(Cc2ccc(C(C)(C)C)cc2)C(=O)c2cccc3c2NCCC3)cc1` [Compound 17, 1,2,3,4-Tetrahydro-quinoline-8-carboxylic acid (4-tert-butyl-benzyl)-[2-(4-methoxy-phenyl)-ethyl]-amide]: the inhibition at 10 µM was determined as 92%.
Consider `CC(C)(C)c1ccc(CN(CCc2cccc(Cl)c2)C(=O)c2cccc3c2NCCC3)cc1` [Compound 10, 1,2,3,4-Tetrahydro-quinoline-8-carboxylic acid (4-tert-butyl-benzyl)-[2-(3-chloro-phenyl)-ethyl]-amide], for which the inhibition at 10 µM worked out at 57%.
On to `CC(C)(C)c1ccc(CN(CCc2cccc3ccccc23)C(=O)c2cccc3c2NCCC3)cc1` [Compound 37, 1,2,3,4-Tetrahydro-quinoline-8-carboxylic acid (4-tert-butyl-benzyl)-(2-naphthalen-1-yl-ethyl)-amide], for which the inhibition at 10 µM was found to be 86%.
On the same count and under the same terms, as for `CC(C)(C)c1ccc(CN(CCc2ccc(O[Si](C)(C)C)cc2)C(=O)c2cccc3c2NCCC3)cc1` [Compound 47, 1,2,3,4-Tetrahydro-quinoline-8-carboxylic acid (4-tert-butyl-benzyl)-[2-(4-trimethylsilanyloxy-phenyl)-ethyl]-amide], the figure is 76%.
For the compound `Cc1cc2c(c(C(=O)N(CCc3ccc(F)cc3)Cc3ccc(C(C)(C)C)cc3)c1)NCCC2` [Compound 13, 6-Methyl-1,2,3,4-tetrahydro-quinoline-8-carboxylic acid (4-tert-butyl-benzyl)-[2-(4-fluoro-phenyl)-ethyl]-amide], the inhibition at 10 µM was 80%.
With `CCN(CC)c1ccc(CCN(Cc2ccc(C(C)(C)C)cc2)C(=O)c2cccc3c2NCCC3)cc1` [Compound 28, 1,2,3,4-Tetrahydro-quinoline-8-carboxylic acid (4-tert-butyl-benzyl)-[2-(4-diethylamino-phenyl)-ethyl]-amide], the inhibition at 10 µM was found to be 80%.
As to `CC(C)(C)c1ccc(CN(CCc2ccc(F)cc2)C(=O)c2cc(F)cc3c2NCCC3)cc1` [Compound 24, 6-Fluoro-1,2,3,4-tetrahydro-quinoline-8-carboxylic acid (4-tert-butyl-benzyl)-[2-(4-fluoro-phenyl)-ethyl]-amide], the inhibition at 10 µM was 76%.
In the case of `CC(C)(C)c1ccc(CN(Cc2cccc(Cl)c2)C(=O)c2cccc3c2NCCC3)cc1` [Compound 21, 1,2,3,4-Tetrahydro-quinoline-8-carboxylic acid (4-tert-butyl-benzyl)-(3-chloro-benzyl)-amide], the inhibition at 10 µM was 77%.
Still for that read-out and setting: in the case of `CC(C)(C)c1ccc(CN(CCc2ccc(Cl)c(Cl)c2)C(=O)c2cc(F)cc3c2NCCC3)cc1` [Compound 32, 6-Fluoro-1,2,3,4-tetrahydro-quinoline-8-carboxylic acid (4-tert-butyl-benzyl)-[2-(3,4-dichloro-phenyl)-ethyl]-amide] it was 82%.
On the same count and under the same terms, in the case of `CC(C)(C)c1ccc(CN(CCc2ccc(F)cc2)C(=O)c2cccc3c2NCCC3)cc1` [Compound 1, 1,2,3,4-Tetrahydro-quinoline-8-carboxylic acid (4-tert-butyl-benzyl)-(2-(4-fluoro-phenyl)-ethyl)-amide] it was 43%.
The same measure, in the same setting: in the case of `CC(C)(C)c1ccc(CN(CCc2ccc(Cl)c(F)c2)C(=O)c2cc(Cl)cc3c2NCCC3)cc1` [Compound 45, 6-Chloro-1,2,3,4-tetrahydro-quinoline-8-carboxylic acid (4-tert-butyl-benzyl)-[2-(4-chloro-3-fluoro-phenyl)-ethyl]-amide] it was 88%.
Take `CC(C)(C)c1ccc(CN(CCc2ccc(F)cc2)C(=O)c2ccc(Cl)c3c2NCCC3)cc1` [Compound 7, 5-Chloro-1,2,3,4-tetrahydro-quinoline-8-carboxylic acid (4-tert-butyl-benzyl)-[2-(4-fluoro-phenyl)-ethyl]-amide]: the inhibition at 10 µM was 67%.

For another assay, the target named is T1, recombinant CETP. The assay is described as above. Conditions: CETP inhibition in human plasma. It is filed as biochemical.
With `CC(C)(C)c1ccc(CN(CCc2ccccc2F)C(=O)c2cccc3c2NCCC3)cc1` [Compound 22, 1,2,3,4-Tetrahydro-quinoline-8-carboxylic acid (4-tert-butyl-benzyl)-[2-(2-fluoro-phenyl)-ethyl]-amide], the half-inhibitory concentration (IC50) was found to be 0.455 µM.
As for `CC(C)(C)c1ccc(CN(CCc2ccc(O[Si](C)(C)C)cc2)C(=O)c2cccc3c2NCCC3)cc1` [Compound 47, 1,2,3,4-Tetrahydro-quinoline-8-carboxylic acid (4-tert-butyl-benzyl)-[2-(4-trimethylsilanyloxy-phenyl)-ethyl]-amide], the concentration for half-maximal inhibition (IC50) amounted to 0.167 µM.
For `CC(C)(C)c1ccc(CN(CCc2ccc(Cl)c(Cl)c2)C(=O)c2cc(F)cc3c2NCCC3)cc1.Cl` [Compound 50, 6-Fluoro-1,2,3,4-tetrahydro-quinoline-8-carboxylic acid (4-tert-butyl-benzyl)-[2-(3,4-dichloro-phenyl)-ethyl]-amide; hydrochloride salt], the IC50 was determined as 0.03 µM.
